Assay results reported in the supplement of paper PMC10307832.

How the values were obtained:
Assay in all cases: relative viability (nuclei count vs DMSO), 5 days (fraction); higher = more cells survive
[1] = compound: CC1=C(C(=NN1)C)CC2=C(C3=C(S2)N(C(=O)N(C3=O)C)CC(C)C)C(=O)N4C[C@@H](CO4)O + CS(=O)(=O)CCNCc1ccc(-c2ccc3ncnc(Nc4ccc(OCc5cccc(F)c5)c(Cl)c4)c3c2)o1 [Lapatinib] (partner 2 µM)
Method in brief: (§1)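 Lung cancer cell lines were seeded in 1536-well plates and dosed by pin tool the next day, with either a single drug or a fixed anchor-drug dose combined with five library-drug doses (not always all listed) spaced in √10 steps. Five days later, one step fixed the cells and stained their nuclei (final 0.05% Triton X-100, 1% formaldehyde, 1 ug/ml Hoechst), and nuclei were counted on 4× images. Relative viability is the nuclei count in treated wells divided by the count in vehicle wells, and each value is the median of duplicate plates.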

IDH-C35 + Tozasertib = compound: Cc1ccccc1C(C(=O)NC1CCCCC1)N(C(=O)Cn1ccnc1C)c1cccc(F)c1 [IDH-C35] + Cc1cc(Nc2cc(N3CCN(C)CC3)nc(Sc3ccc(NC(=O)C4CC4)cc3)n2)n[nH]1 [Tozasertib] (partner 0.1 µM)
Method in brief: as §1

[2] = compound: CC1=C(C(=NN1)C)CC2=C(C3=C(S2)N(C(=O)N(C3=O)C)CC(C)C)C(=O)N4C[C@@H](CO4)O + O=C(c1cc(Cc2n[nH]c(=O)c3ccccc23)ccc1F)N1CCN(C(=O)C2CC2)CC1 [Olaparib] (partner 8 µM)
Method in brief: as §1

IDH-C35 + Decitabine = compound: Cc1ccccc1C(C(=O)NC1CCCCC1)N(C(=O)Cn1ccnc1C)c1cccc(F)c1 [IDH-C35] + Nc1ncn([C@H]2C[C@H](O)[C@@H](CO)O2)c(=O)n1 [Decitabine] (partner 2 µM)
Method in brief: as §1

NCI-H3122
relative viability ([1]; first compound 0.0025 µM): 1.06 | relative viability ([1]; first compound 0.007906 µM): 1.03 | relative viability ([1]; first compound 0.025 µM): 1.01 | relative viability ([1]; first compound 0.07906 µM): 0.993 | relative viability ([1]; first compound 0.25 µM): 1.02 | relative viability (IDH-C35 + Tozasertib; first compound 0.08 µM): 0.363 | relative viability (IDH-C35 + Tozasertib; first compound 0.253 µM): 0.401 | relative viability (IDH-C35 + Tozasertib; first compound 0.8 µM): 0.394 | relative viability (IDH-C35 + Tozasertib; first compound 2.53 µM): 0.317 | relative viability (IDH-C35 + Tozasertib; first compound 8 µM): 0.42 | relative viability ([2]; first compound 0.0025 µM): 0.62 | relative viability ([2]; first compound 0.007906 µM): 0.659 | relative viability ([2]; first compound 0.025 µM): 0.64 | relative viability ([2]; first compound 0.07906 µM): 0.618 | relative viability ([2]; first compound 0.25 µM): 0.628 | relative viability (IDH-C35 + Decitabine; first compound 0.08 µM): 0.432 | relative viability (IDH-C35 + Decitabine; first compound 0.253 µM): 0.428 | relative viability (IDH-C35 + Decitabine; first compound 0.8 µM): 0.386 | relative viability (IDH-C35 + Decitabine; first compound 2.53 µM): 0.473 | relative viability (IDH-C35 + Decitabine; first compound 8 µM): 0.458

PC-3 [JPC-3]
relative viability ([1]; first compound 0.0025 µM): 0.475 | relative viability ([1]; first compound 0.007906 µM): 0.411 | relative viability ([1]; first compound 0.025 µM): 0.501 | relative viability ([1]; first compound 0.07906 µM): 0.522 | relative viability ([1]; first compound 0.25 µM): 0.427 | relative viability (IDH-C35 + Tozasertib; first compound 0.08 µM): 0.803 | relative viability (IDH-C35 + Tozasertib; first compound 0.253 µM): 0.898 | relative viability (IDH-C35 + Tozasertib; first compound 0.8 µM): 0.861 | relative viability (IDH-C35 + Tozasertib; first compound 2.53 µM): 0.852 | relative viability (IDH-C35 + Tozasertib; first compound 8 µM): 0.927 | relative viability ([2]; first compound 0.0025 µM): 1.19 | relative viability ([2]; first compound 0.007906 µM): 0.794 | relative viability ([2]; first compound 0.025 µM): 1.14 | relative viability ([2]; first compound 0.07906 µM): 1.07 | relative viability ([2]; first compound 0.25 µM): 1.3 | relative viability (IDH-C35 + Decitabine; first compound 0.08 µM): 0.843 | relative viability (IDH-C35 + Decitabine; first compound 0.253 µM): 0.795 | relative viability (IDH-C35 + Decitabine; first compound 0.8 µM): 0.864 | relative viability (IDH-C35 + Decitabine; first compound 2.53 µM): 0.806 | relative viability (IDH-C35 + Decitabine; first compound 8 µM): 0.807

PC-14
relative viability ([1]; first compound 0.0025 µM): 0.373 | relative viability ([1]; first compound 0.007906 µM): 0.413 | relative viability ([1]; first compound 0.025 µM): 0.32 | relative viability ([1]; first compound 0.07906 µM): 0.32 | relative viability ([1]; first compound 0.25 µM): 0.359 | relative viability (IDH-C35 + Tozasertib; first compound 0.08 µM): 0.634 | relative viability (IDH-C35 + Tozasertib; first compound 0.253 µM): 0.542 | relative viability (IDH-C35 + Tozasertib; first compound 0.8 µM): 0.611 | relative viability (IDH-C35 + Tozasertib; first compound 2.53 µM): 0.58 | relative viability (IDH-C35 + Tozasertib; first compound 8 µM): 0.557 | relative viability ([2]; first compound 0.0025 µM): 0.295 | relative viability ([2]; first compound 0.007906 µM): 0.203 | relative viability ([2]; first compound 0.025 µM): 0.239 | relative viability ([2]; first compound 0.07906 µM): 0.25 | relative viability ([2]; first compound 0.25 µM): 0.368 | relative viability (IDH-C35 + Decitabine; first compound 0.08 µM): 0.211 | relative viability (IDH-C35 + Decitabine; first compound 0.253 µM): 0.206 | relative viability (IDH-C35 + Decitabine; first compound 0.8 µM): 0.239 | relative viability (IDH-C35 + Decitabine; first compound 2.53 µM): 0.226 | relative viability (IDH-C35 + Decitabine; first compound 8 µM): 0.214

RERF-LC-KJ
relative viability ([1]; first compound 0.0025 µM): 0.899 | relative viability ([1]; first compound 0.007906 µM): 0.928 | relative viability ([1]; first compound 0.025 µM): 0.86 | relative viability ([1]; first compound 0.07906 µM): 0.885 | relative viability ([1]; first compound 0.25 µM): 0.941 | relative viability (IDH-C35 + Tozasertib; first compound 0.08 µM): 0.396 | relative viability (IDH-C35 + Tozasertib; first compound 0.253 µM): 0.503 | relative viability (IDH-C35 + Tozasertib; first compound 0.8 µM): 0.489 | relative viability (IDH-C35 + Tozasertib; first compound 2.53 µM): 0.544 | relative viability (IDH-C35 + Tozasertib; first compound 8 µM): 0.442 | relative viability ([2]; first compound 0.0025 µM): 0.958 | relative viability ([2]; first compound 0.007906 µM): 0.832 | relative viability ([2]; first compound 0.025 µM): 1.04 | relative viability ([2]; first compound 0.07906 µM): 0.926 | relative viability ([2]; first compound 0.25 µM): 0.883 | relative viability (IDH-C35 + Decitabine; first compound 0.08 µM): 0.727 | relative viability (IDH-C35 + Decitabine; first compound 0.253 µM): 0.69 | relative viability (IDH-C35 + Decitabine; first compound 0.8 µM): 0.753 | relative viability (IDH-C35 + Decitabine; first compound 2.53 µM): 0.809 | relative viability (IDH-C35 + Decitabine; first compound 8 µM): 0.681

SK-LU-1
relative viability ([1]; first compound 0.0025 µM): 0.805 | relative viability ([1]; first compound 0.007906 µM): 0.425 | relative viability ([1]; first compound 0.025 µM): 0.263 | relative viability ([1]; first compound 0.07906 µM): 0.295 | relative viability ([1]; first compound 0.25 µM): 0.4 | relative viability (IDH-C35 + Tozasertib; first compound 0.08 µM): 0.359 | relative viability (IDH-C35 + Tozasertib; first compound 0.253 µM): 0.347 | relative viability (IDH-C35 + Tozasertib; first compound 0.8 µM): 0.364 | relative viability (IDH-C35 + Tozasertib; first compound 2.53 µM): 0.341 | relative viability (IDH-C35 + Tozasertib; first compound 8 µM): 0.341 | relative viability ([2]; first compound 0.0025 µM): 0.439 | relative viability ([2]; first compound 0.007906 µM): 0.366 | relative viability ([2]; first compound 0.025 µM): 0.266 | relative viability ([2]; first compound 0.07906 µM): 0.332 | relative viability ([2]; first compound 0.25 µM): 0.377 | relative viability (IDH-C35 + Decitabine; first compound 0.08 µM): 0.636 | relative viability (IDH-C35 + Decitabine; first compound 0.253 µM): 0.687 | relative viability (IDH-C35 + Decitabine; first compound 0.8 µM): 0.592 | relative viability (IDH-C35 + Decitabine; first compound 2.53 µM): 0.65 | relative viability (IDH-C35 + Decitabine; first compound 8 µM): 0.654

SK-MES-1
relative viability ([1]; first compound 0.0025 µM): 0.474 | relative viability ([1]; first compound 0.007906 µM): 0.462 | relative viability ([1]; first compound 0.025 µM): 0.445 | relative viability ([1]; first compound 0.07906 µM): 0.434 | relative viability ([1]; first compound 0.25 µM): 0.454 | relative viability (IDH-C35 + Tozasertib; first compound 0.08 µM): 0.927 | relative viability (IDH-C35 + Tozasertib; first compound 0.253 µM): 0.86 | relative viability (IDH-C35 + Tozasertib; first compound 0.8 µM): 0.88 | relative viability (IDH-C35 + Tozasertib; first compound 2.53 µM): 0.863 | relative viability (IDH-C35 + Tozasertib; first compound 8 µM): 0.761 | relative viability ([2]; first compound 0.0025 µM): 0.702 | relative viability ([2]; first compound 0.007906 µM): 0.756 | relative viability ([2]; first compound 0.025 µM): 0.691 | relative viability ([2]; first compound 0.07906 µM): 0.82 | relative viability ([2]; first compound 0.25 µM): 0.774 | relative viability (IDH-C35 + Decitabine; first compound 0.08 µM): 0.294 | relative viability (IDH-C35 + Decitabine; first compound 0.253 µM): 0.39 | relative viability (IDH-C35 + Decitabine; first compound 0.8 µM): 0.379 | relative viability (IDH-C35 + Decitabine; first compound 2.53 µM): 0.362 | relative viability (IDH-C35 + Decitabine; first compound 8 µM): 0.377

SW 1573
relative viability ([1]; first compound 0.0025 µM): 1.09 | relative viability ([1]; first compound 0.007906 µM): 1.02 | relative viability ([1]; first compound 0.025 µM): 1.05 | relative viability ([1]; first compound 0.07906 µM): 1.04 | relative viability ([1]; first compound 0.25 µM): 1.19 | relative viability (IDH-C35 + Tozasertib; first compound 0.08 µM): 0.187 | relative viability (IDH-C35 + Tozasertib; first compound 0.253 µM): 0.14 | relative viability (IDH-C35 + Tozasertib; first compound 0.8 µM): 0.239 | relative viability (IDH-C35 + Tozasertib; first compound 2.53 µM): 0.194 | relative viability (IDH-C35 + Tozasertib; first compound 8 µM): 0.184 | relative viability ([2]; first compound 0.0025 µM): 0.462 | relative viability ([2]; first compound 0.007906 µM): 0.515 | relative viability ([2]; first compound 0.025 µM): 0.521 | relative viability ([2]; first compound 0.07906 µM): 0.468 | relative viability ([2]; first compound 0.25 µM): 0.492 | relative viability (IDH-C35 + Decitabine; first compound 0.08 µM): 0.491 | relative viability (IDH-C35 + Decitabine; first compound 0.253 µM): 0.628 | relative viability (IDH-C35 + Decitabine; first compound 0.8 µM): 0.564 | relative viability (IDH-C35 + Decitabine; first compound 2.53 µM): 0.544 | relative viability (IDH-C35 + Decitabine; first compound 8 µM): 0.465
